Assay results taken from ChEMBL document CHEMBL1201862, “PubChem BioAssay data set” (2004).
Activity calls are given as the source filed them.

Experiments:
[1] = target: Serine/threonine-protein phosphatase PP1-alpha catalytic subunit (Homo sapiens, UniProt P62136); experiment: PP1 phosphatase inhibitors, dose response, biochemical, fluorescence (AID 2394)
[2] = target: T1, Sentrin-specific protease 8 (Homo sapiens, UniProt Q96LD8); experiment: SENP8 protease inhibitors, SAR follow-up, biochemical, luminescence (AID 504501); type: functional
T1 sequence (Q96LD8 whole entry): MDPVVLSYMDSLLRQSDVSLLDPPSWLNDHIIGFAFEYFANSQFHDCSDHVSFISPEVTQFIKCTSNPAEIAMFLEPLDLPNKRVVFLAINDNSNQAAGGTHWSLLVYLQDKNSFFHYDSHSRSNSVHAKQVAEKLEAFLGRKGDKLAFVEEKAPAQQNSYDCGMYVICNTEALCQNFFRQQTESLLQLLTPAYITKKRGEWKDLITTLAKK

[3] = target: T2, Sentrin-specific protease 7 (Homo sapiens, UniProt Q9BQF6); experiment: SENP7 protease inhibitors, SAR follow-up, biochemical, luminescence (AID 504497); type: functional
T2 sequence (Q9BQF6 whole entry): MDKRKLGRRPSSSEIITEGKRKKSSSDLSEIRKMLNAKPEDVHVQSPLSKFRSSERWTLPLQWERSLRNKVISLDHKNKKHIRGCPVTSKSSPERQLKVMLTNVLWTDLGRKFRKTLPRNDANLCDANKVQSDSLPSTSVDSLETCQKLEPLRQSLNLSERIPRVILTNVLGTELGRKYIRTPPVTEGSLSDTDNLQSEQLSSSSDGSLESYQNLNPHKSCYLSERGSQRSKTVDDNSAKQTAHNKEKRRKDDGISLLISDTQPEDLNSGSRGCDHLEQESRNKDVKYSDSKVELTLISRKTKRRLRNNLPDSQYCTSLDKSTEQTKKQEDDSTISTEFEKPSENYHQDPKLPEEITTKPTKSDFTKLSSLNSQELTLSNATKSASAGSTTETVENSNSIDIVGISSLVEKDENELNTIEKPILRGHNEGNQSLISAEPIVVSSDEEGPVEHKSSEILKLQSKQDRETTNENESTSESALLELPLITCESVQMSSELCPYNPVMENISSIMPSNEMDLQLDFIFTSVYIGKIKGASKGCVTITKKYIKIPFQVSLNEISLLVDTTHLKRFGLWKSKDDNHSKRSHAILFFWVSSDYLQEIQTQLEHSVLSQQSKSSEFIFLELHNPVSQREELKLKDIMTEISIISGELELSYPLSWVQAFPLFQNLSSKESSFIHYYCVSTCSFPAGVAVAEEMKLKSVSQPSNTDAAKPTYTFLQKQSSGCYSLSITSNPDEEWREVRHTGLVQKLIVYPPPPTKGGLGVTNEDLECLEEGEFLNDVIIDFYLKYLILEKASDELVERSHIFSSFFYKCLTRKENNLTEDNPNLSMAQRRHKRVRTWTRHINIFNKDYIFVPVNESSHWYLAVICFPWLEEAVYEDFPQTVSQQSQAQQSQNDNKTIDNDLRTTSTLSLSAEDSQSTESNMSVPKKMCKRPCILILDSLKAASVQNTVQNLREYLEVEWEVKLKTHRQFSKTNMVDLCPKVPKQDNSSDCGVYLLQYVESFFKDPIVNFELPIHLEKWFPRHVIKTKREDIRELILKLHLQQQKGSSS

[4] = target: T3, Polyadenylate-binding protein 1 (Homo sapiens, UniProt P11940); experiment: PABP1 MLLE–PAM2 interaction inhibitors, dose response, miRNA deadenylation inhibitor project, biochemical, fluorescence polarization, Cy5-PAM2 peptide, secondary (AID 602260); type: functional; details: read-out: IC50_Mean
[5] = target: T3, Polyadenylate-binding protein 1; experiment: PABP1 MLLE–PAM2 binding inhibitor potency, dose response, biochemical, fluorescence polarization, FITC-PAM2 peptide (AID 602259); type: functional; details: read-out: IC50_Mean
BJ [6] = experiment: cells; type: functional, cell-based; details: Homo sapiens
[7] = target: Glucose-6-phosphate 1-dehydrogenase (Homo sapiens, UniProt P11413); experiment: human G6PD enzyme inhibitors, dose response, selectivity assay for P. falciparum G6PD inhibitor project, biochemical, fluorescence (AID 504792); type: functional
[8] = cytotoxicity in HEK-293T cells, dose response, cytotoxicity control for TCR NF-kB inhibitor project, luminescence, T-cell screen hits (AID 489026); type: functional, cell-based;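 further: cells exposed to compound about 14 hours before the viability readout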
Nonstructural protein 1 = Nonstructural protein 1 (Influenza A virus, UniProt Q194T2); type: functional, Influenza A virus (A/California/07/2009(H1N1))
BJ [9] = experiment: cytotoxicity toward Ras-transformed BJeLR fibroblasts, dose response, cell-based, alamar blue fluorescence, cherrypicked samples (AID 2631); type: functional; details: Homo sapiens;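 further: confirmatory dose-response assay in RAS-dependent BJ fibroblasts engineered with TERT, LT and ST, with cytotoxicity read by fluorescence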
INS1 = experiment: beta cell apoptosis inhibitors, cytokine rescue, dose response, luminescence, retest (AID 449756); type: functional, cell-based; details: Rattus norvegicus;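 further: cell death triggered by IL-1 beta plus TNF-alpha plus IFN-gamma mixture; protective hits raise ATP signal compared with cytokine alone wells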
[10] = HEp-2 cell cytotoxicity, dose response, cytotoxicity control for RSV inhibitor project, HTS (AID 2410); type: functional; details: human respiratory syncytial virus
[11] = target: T4, Calpain-2 catalytic subunit (Sus scrofa, UniProt P43367); experiment: pig calpain II inhibitor potency, dose response, biochemical, fluorogenic peptide substrate (AID 1420); type: functional
T4 sequence (P43367 whole entry): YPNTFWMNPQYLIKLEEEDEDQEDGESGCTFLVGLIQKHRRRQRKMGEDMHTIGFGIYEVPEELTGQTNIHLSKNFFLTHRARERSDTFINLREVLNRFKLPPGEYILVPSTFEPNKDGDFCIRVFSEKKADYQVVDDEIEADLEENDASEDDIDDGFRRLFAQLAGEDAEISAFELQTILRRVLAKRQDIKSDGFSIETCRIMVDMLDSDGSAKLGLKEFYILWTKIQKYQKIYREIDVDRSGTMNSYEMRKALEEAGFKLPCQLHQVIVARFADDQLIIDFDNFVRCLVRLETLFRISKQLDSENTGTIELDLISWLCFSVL

Melanocortin receptor 4 = Melanocortin receptor 4 (Homo sapiens, UniProt P32245); type: functional, cell-based;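 further: Cell-based assay with luminescence read-out, confirmatory dose-response testing for agonist activity of biased ligands at MC4R; human U2OS cells with tagged receptor and beta-arrestin; potency of agonists that increase receptor coupling to beta-arrestin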
SUMO-activating enzyme [12] = target: T5, SUMO-activating enzyme (Homo sapiens, UniProt Q9UBT2); experiment: SUMOylation inhibitor hit validation, confirmation, SUMOylation inhibitor project, biochemical, AlphaScreen (AID 2018); type: functional
SUMO-activating enzyme [13] = target: T5, SUMO-activating enzyme; experiment: inhibitors of in vitro SUMOylation cascade, primary screen, biochemical, HTRF, uHTS (AID 2006); type: protein-complex assay
[14] = cytotoxicity toward NIH3T3 fibroblasts, dose response, counter-screen, cell-based, ATP luminescence, mouse fibroblasts (AID 2010); type: functional;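 further: cells exposed to compound for about 90 hours before reading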
[15] = Luminescence Cell-Based Dose Retest to Confirm Inhibitors of Cancer Stem Cells. [Related pubchem assays (depositor defined):AID2717, AID2721]; type: functional; details: Homo sapiens

T5 sequence (Q9UBE0 whole entry): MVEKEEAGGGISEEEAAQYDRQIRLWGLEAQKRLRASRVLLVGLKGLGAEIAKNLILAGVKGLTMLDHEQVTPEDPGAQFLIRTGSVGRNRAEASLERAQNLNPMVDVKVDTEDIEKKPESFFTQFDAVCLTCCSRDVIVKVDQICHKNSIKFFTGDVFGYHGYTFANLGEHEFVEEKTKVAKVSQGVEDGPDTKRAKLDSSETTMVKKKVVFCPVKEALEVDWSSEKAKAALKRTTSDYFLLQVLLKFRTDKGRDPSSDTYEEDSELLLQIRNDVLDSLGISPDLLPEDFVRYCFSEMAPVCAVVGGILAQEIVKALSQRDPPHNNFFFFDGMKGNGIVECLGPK
T5 sequence (Q9UBT2 whole entry): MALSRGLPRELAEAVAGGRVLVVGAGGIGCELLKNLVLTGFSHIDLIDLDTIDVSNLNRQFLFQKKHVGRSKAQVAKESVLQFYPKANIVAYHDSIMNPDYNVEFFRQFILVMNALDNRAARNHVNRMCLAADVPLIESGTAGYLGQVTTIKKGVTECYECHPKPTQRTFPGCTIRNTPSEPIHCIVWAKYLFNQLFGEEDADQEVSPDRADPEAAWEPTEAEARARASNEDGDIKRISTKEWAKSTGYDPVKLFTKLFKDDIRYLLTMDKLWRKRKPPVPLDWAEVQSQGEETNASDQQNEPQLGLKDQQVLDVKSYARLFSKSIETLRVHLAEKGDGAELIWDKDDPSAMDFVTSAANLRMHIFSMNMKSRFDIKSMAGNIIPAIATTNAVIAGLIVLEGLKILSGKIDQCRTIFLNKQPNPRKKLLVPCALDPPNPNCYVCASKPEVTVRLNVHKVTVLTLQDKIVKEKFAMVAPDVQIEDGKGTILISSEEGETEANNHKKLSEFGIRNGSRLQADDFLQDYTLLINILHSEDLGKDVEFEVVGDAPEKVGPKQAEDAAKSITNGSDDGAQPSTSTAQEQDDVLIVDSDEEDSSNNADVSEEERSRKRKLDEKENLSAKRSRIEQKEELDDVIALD
T3 sequence (P11940 whole entry): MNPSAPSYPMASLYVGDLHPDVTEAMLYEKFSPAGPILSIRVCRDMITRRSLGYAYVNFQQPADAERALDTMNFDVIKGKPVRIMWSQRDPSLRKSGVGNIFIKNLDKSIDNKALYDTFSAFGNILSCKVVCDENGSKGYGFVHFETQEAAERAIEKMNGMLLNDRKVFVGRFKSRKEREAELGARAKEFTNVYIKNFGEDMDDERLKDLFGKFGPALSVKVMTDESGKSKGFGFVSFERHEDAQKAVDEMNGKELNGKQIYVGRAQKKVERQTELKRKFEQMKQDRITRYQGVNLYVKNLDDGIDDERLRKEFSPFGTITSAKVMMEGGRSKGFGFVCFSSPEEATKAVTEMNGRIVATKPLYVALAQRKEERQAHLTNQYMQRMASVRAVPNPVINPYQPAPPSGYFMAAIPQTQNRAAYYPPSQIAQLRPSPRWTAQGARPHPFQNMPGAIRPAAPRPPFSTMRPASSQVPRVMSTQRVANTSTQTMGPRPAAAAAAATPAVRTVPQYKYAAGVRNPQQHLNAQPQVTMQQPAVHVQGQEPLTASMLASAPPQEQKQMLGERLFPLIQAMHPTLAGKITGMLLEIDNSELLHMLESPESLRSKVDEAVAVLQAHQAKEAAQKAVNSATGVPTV
Melanocortin receptor 4, sequence (P32245 whole entry): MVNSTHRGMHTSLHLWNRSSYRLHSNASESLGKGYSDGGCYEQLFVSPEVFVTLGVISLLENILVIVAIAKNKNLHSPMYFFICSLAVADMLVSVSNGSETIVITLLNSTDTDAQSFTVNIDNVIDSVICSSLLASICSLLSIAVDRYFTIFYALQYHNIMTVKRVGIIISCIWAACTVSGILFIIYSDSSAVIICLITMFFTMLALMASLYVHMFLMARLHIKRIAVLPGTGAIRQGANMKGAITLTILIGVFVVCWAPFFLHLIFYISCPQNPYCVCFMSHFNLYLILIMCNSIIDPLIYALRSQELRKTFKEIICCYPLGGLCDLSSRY
Glucose-6-phosphate 1-dehydrogenase, sequence (P11413 whole entry): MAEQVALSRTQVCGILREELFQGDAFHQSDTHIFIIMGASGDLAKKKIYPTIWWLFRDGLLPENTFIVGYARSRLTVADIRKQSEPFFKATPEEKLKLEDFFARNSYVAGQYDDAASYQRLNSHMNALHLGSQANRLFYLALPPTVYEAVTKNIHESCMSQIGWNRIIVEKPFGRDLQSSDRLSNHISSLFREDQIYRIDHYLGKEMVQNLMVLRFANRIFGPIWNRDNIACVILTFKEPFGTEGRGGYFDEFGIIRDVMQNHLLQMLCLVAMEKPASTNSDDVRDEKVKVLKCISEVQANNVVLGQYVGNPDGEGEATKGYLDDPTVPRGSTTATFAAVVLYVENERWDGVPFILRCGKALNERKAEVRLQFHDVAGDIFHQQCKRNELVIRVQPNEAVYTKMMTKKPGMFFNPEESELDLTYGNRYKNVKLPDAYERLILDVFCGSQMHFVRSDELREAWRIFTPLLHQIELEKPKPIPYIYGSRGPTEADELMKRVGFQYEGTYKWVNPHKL
Serine/threonine-protein phosphatase PP1-alpha catalytic subunit, sequence (P62136 whole entry): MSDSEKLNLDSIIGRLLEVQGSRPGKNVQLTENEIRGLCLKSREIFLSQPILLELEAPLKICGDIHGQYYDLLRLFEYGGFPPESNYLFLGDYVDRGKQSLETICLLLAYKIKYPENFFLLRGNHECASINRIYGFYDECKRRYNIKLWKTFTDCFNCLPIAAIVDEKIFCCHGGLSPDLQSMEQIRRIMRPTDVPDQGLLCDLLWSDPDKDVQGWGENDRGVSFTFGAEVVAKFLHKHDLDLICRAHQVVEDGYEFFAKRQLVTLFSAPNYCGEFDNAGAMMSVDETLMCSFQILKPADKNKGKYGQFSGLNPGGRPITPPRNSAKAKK
Nonstructural protein 1, sequence (Q194T2 whole entry): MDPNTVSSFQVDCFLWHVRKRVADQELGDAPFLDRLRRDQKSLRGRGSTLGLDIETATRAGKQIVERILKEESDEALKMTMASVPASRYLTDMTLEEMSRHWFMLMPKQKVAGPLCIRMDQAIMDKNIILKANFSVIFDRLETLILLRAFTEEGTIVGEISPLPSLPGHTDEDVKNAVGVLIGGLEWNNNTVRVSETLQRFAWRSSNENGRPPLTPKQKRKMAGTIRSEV

Oc1ccc(/C=N/Nc2cc(N3CCCC3)nc(N3CCCC3)n2)cc1
IC50 [1]: > 67 µM (not active)
IC50 [2]: > 99 µM (inactive)
IC50 [3]: > 99 µM (inactive)
IC50 [4]: > 66 µM (inactive)
IC50 [5]: 34.4 µM (inactive)

COc1ccc(S(=O)(=O)/N=C2\C=C(Nc3ccc(O)cc3)C(=O)c3ccccc32)cc1
EC50 (BJ [6]): 3.21 µM (inconclusive)
IC50 [7]: > 80 µM (inactive)
IC50 [8]: 4.19 µM (active)
IC50 (Nonstructural protein 1): 8.09 µM (active)
EC50 (BJ [9]): 0.507 µM (inconclusive)
AC50 (INS1): 0.592 µM (active)

Cc1cccc(C)c1-n1cccc1/C=C1\SC(=S)N(c2cccc(C(=O)O)c2)C1=O
CC50 [10]: 12.8 µM (active)
IC50 [11]: 7.27 µM (not active)
EC50 (Melanocortin receptor 4): > 89.2 µM (inactive)

COc1ccc(/C=N/Nc2cc(N3CCCC3)nc(N3CCCC3)n2)cc1
IC50 (SUMO-activating enzyme [12]): 0.68 µM (active)
IC50 (SUMO-activating enzyme [13]): 2.31 µM (active)
EC50 [14]: 8.97 µM (active)
AC50 [15]: 3.71 µM (active)
